Activity data for five compounds are collected here from article PMC6691788, “Design and synthesis of phthalazine-based compounds as potent anticancer agents with potential antiangiogenic activity via VEGFR-2 inhibition” (Journal of Enzyme Inhibition and Medicinal Chemistry, 2019).

What all share (assay): NCI 60 cell panel SRB screen
One assay concerns OVCAR-4. It is filed as cell-based. The conditions noted are these: Homo sapiens; OVCAR-4, single dose 10 μM; read-out: percent cell growth promotion.
Another assay relates to MDA-MB 231/ATCC. It counts as cell-based. The conditions noted are these: Homo sapiens, MDA-MB-231, read-out: percent cell growth promotion.
The subject of the next assay is HCT-116. It is filed as cell-based. The settings on record: Homo sapiens; HCT-116, single dose 10 μM; read-out: percent cell growth promotion.
For a further assay, the system named is LOX IMVI. It counts as cell-based. The conditions noted are these: Homo sapiens, read-out: percent cell growth promotion.
The next assay deals with IGROV1. It counts as cell-based. The settings on record: Homo sapiens, IGROV-1; IGROV1, single dose 10 μM; read-out: percent cell growth promotion.
For a further assay, the system named is HT29. It counts as cell-based. The conditions noted are these: Homo sapiens, HT-29; HT29, single dose 10 μM; read-out: percent cell growth promotion.
The next assay deals with CCRF-CEM. It is filed as cell-based, human. The settings on record: Homo sapiens, single dose 10 μM, read-out: percent cell growth promotion.
A further assay concerns OVCAR-3. It is filed as cell-based. The settings on record: Homo sapiens; OVCAR-3, single dose 10 μM; read-out: percent cell growth promotion.
The test system of another assay is NCI-H460. It counts as cell-based. The conditions noted are these: Homo sapiens; NCI-H460, single dose 10 μM; read-out: percent cell growth promotion.
The subject of another assay is OVCAR-5. It counts as cell-based. The settings on record: Homo sapiens; OVCAR-5, single dose 10 μM; read-out: percent cell growth promotion.
Another assay has as its system MDA-MB-468. It is filed as cell-based. The settings on record: Homo sapiens, MDA-MB-468; MDA-MBA-468, single dose 10 μM; read-out: percent cell growth promotion. In outline: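 Cells in RPMI 1640 with 5% FBS, preincubated 24 h, then exposed to five concentrations for 48 h at 37 °C. TCA fixation, SRB staining, absorbance at 515 nm; a time-zero plate allows GI50 (50% reduction in net protein gain), TGI and LC50 (50% loss versus start).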

Another assay deals with SNB-75. It is filed as cell-based. The settings on record: Homo sapiens; SNB-75, single dose 10 μM; read-out: percent cell growth promotion.
The subject of another assay is SK-MEL-5. It counts as cell-based. The settings on record: Homo sapiens, SK-MEL-5, read-out: percent cell growth promotion.
For the next assay, the system named is KM12. It counts as cell-based. The settings on record: Homo sapiens; KM12, single dose 10 μM; read-out: percent cell growth promotion.
The next assay has as its system UACC-62. It is filed as cell-based. The settings on record: Homo sapiens, UACC-62, read-out: percent cell growth promotion.
The subject of the next assay is HS 578T. It counts as cell-based. The settings on record: Homo sapiens, Hs-578T, read-out: percent cell growth promotion.
In another assay the test system is TK-10. It counts as cell-based, human. The settings on record: Homo sapiens; TK-10, single dose 10 μM; read-out: percent cell growth promotion.
The next assay deals with T-47D. It counts as cell-based. The settings on record: Homo sapiens, T47D, read-out: percent cell growth promotion.

Each structure is given as a SMILES string.

For `Cc1nnc(Oc2ccc(NC(=O)Nc3ccc(Cl)cc3)cc2)c2ccccc12` [Compound 7e, 1–(4-Chlorophenyl)-3–(4-(4-methylphthalazin-1-yloxy)phenyl)urea], the activity at 10 µM in the assay on OVCAR-4 was 70.8%; in the assay on MDA-MB 231/ATCC, 52.9%; in the assay with HCT-116, 72.5%; in the assay with LOX IMVI, 78.1%; in the assay with IGROV1 it was 90.9%; in the assay with HT29, 77%. For the same compound, the activity at 10 µM with CCRF-CEM turned out to be 40.2%; with OVCAR-3, 69.8%; with NCI-H460, 78.2%; in the assay on OVCAR-5, 119%; in the assay with MDA-MB-468, 68.6%; in the assay with SNB-75, 47.3%. The activity at 10 µM came out at 70.2% in the assay on SK-MEL-5; 57.7% in the assay with KM12; 45.8% in the assay with UACC-62; 76.4% with HS 578T; 84.8% in the assay on TK-10; 57.9% in the assay with T-47D.
Consider `Cc1nnc(Nc2ccc(NC(=O)c3ccc(Cl)cc3)cc2)c2ccccc12` [Compound 5d, 4-Chloro-N-(4–(4-methylphthalazin-1-ylamino)phenyl)benzamide], for which the activity at 10 µM in the assay on OVCAR-4 came out at 105%; with MDA-MB 231/ATCC it was 73%; in the assay on HCT-116 it was 92.2%; with LOX IMVI, 91.9%; with IGROV1, 101%; in the assay on HT29 it was 94.3%. Moreover, the activity at 10 µM with CCRF-CEM stood at 91%; in the assay with OVCAR-3, 93.3%; in the assay with NCI-H460, 96.4%; with OVCAR-5 it was 98.5%; with MDA-MB-468, 104%; in the assay with SNB-75 it was 81.2%. In addition, the activity at 10 µM was found to be 78.7% in the assay with SK-MEL-5; 101% in the assay with KM12; 95.9% with UACC-62; 89.7% in the assay with HS 578T; 109% in the assay with TK-10; 79.8% in the assay with T-47D.
On to `O=C(Nc1ccc(Cl)cc1)Nc1ccc(Oc2nnc(Cl)c3ccccc23)cc1` [Compound 13b, 1–(4-Chlorophenyl)-3–(4-(4-chlorophthalazin-1-yloxy)phenyl)urea], for which the activity at 10 µM turned out to be 72.1% in the assay on OVCAR-4; 67.5% in the assay with MDA-MB 231/ATCC; 97.8% in the assay on HCT-116; 86.2% with LOX IMVI; 79.2% in the assay with IGROV1; 95.8% in the assay on HT29. The activity at 10 µM in the assay on CCRF-CEM stood at 66%; in the assay with OVCAR-3 it was 85.4%; in the assay on NCI-H460, 98.1%; in the assay on OVCAR-5 it was 113%; in the assay with MDA-MB-468, 84.9%; in the assay on SNB-75, 74%. In addition, the activity at 10 µM in the assay with SK-MEL-5 is 95.5%; in the assay on KM12, 84.5%; with UACC-62, 75.7%; in the assay on HS 578T it was 97.9%; with TK-10 it was 109%; with T-47D, 70.5%.
For `Cc1nnc(N2CCN(c3ccccc3)CC2)c2ccccc12` [Compound 8g, 1-Methyl-4–(4-phenylpiperazin-1-yl)phthalazine], the activity at 10 µM with OVCAR-4 was found to be 104%; in the assay on MDA-MB 231/ATCC, 127%; in the assay on HCT-116, 113%; in the assay with LOX IMVI, 103%; in the assay with IGROV1, 112%; in the assay with HT29, 98.3%. Moreover, the activity at 10 µM in the assay with CCRF-CEM stood at 103%; in the assay with OVCAR-3, 108%; with NCI-H460 it was 105%; with OVCAR-5, 98.2%; in the assay with MDA-MB-468, 98.8%; with SNB-75, 98.1%. In addition, the activity at 10 µM in the assay with SK-MEL-5 was 98.1%; with KM12, 109%; in the assay on UACC-62 it was 110%; in the assay on HS 578T, 105%; with TK-10, 97.2%; in the assay with T-47D, 90.5%.
On to `CCOC(=O)N1CCN(c2nncc3ccccc23)CC1` [Compound 8a, Ethyl 4-(phthalazin-1-yl)piperazine-1-carboxylate], for which the activity at 10 µM was 107% with OVCAR-4; 108% with MDA-MB 231/ATCC; 99.1% in the assay with HCT-116; 98.7% in the assay with LOX IMVI; 120% in the assay on IGROV1; 106% with HT29. Further, the activity at 10 µM in the assay with CCRF-CEM turned out to be 96.9%; with OVCAR-3, 105%; with NCI-H460, 105%; in the assay on OVCAR-5 it was 128%; in the assay on MDA-MB-468 it was 97.7%; with SNB-75, 104%. Besides, the activity at 10 µM turned out to be 103% with SK-MEL-5; 104% in the assay with KM12; 103% with UACC-62; 113% in the assay on HS 578T; 110% in the assay with TK-10; 100% in the assay with T-47D.
